Experimental data as given in the OligoGym collection.
“And” between values parts separate entries of the source, which are not always exact repeats. Identical values can stand only once. HELM strings list units from the 5' end as sugar, base in round brackets, then linkage (d deoxyribose, r ribose, m 2'-O-methyl, p phosphodiester). Methylation of C is not given here. [moe] = 2'-O-(2-methoxyethyl) (MOE); [cEt] = constrained ethyl (cEt); [sp] = phosphorothioate linkage

Target: HBV
Settings: ASO

Substance	target mRNA inhibition (HepG2, 0.07 µM)	other results
RNA1{[moe](C)[sp].[moe](G)[sp].[moe](A)[sp].d(A)[sp].d(C)[sp].d(C)[sp].d(A)[sp].d(C)[sp].d(T)[sp].d(G)[sp].d(A)[sp].d(A)[sp].[moe](C)[sp].[moe](A)[sp].[moe](A)[sp].[moe](A)[sp].[moe](T)}$$$$V2.0	60% and 50%	–
RNA1{[moe](C)[sp].[moe](G)[sp].[moe](A)[sp].d(A)[sp].d(C)[sp].d(C)[sp].d(A)[sp].d(C)[sp].d(T)[sp].d(G)[sp].d(A)[sp].d(A)[sp].d(C)[sp].[cEt](A)[sp].[cEt](A)[sp].[cEt](A)}$$$$V2.0	41% and 54%	–
RNA1{[moe](C)[sp].[moe](G)[sp].[moe](C)[sp].[moe](A)[sp].[moe](G)[sp].[moe](T)[sp].d(A)[sp].d(T)[sp].d(G)[sp].d(G)[sp].d(A)[sp].d(T)[sp].d(C)[sp].d(G)[sp].d(G)[sp].[moe](C)[sp].[moe](A)}$$$$V2.0	83% and 70%	target mRNA inhibition (HepG2, 0.0092593 µM): 10%; target mRNA inhibition (HepG2, 0.0277778 µM): 35%; target mRNA inhibition (HepG2, 0.0833333 µM): 44%; target mRNA inhibition (HepG2, 0.25 µM): 76%
RNA1{[moe](C)[sp].[moe](G)[sp].[moe](C)[sp].d(A)[sp].d(G)[sp].d(T)[sp].d(A)[sp].d(T)[sp].d(G)[sp].d(G)[sp].d(A)[sp].d(T)[sp].[moe](C)[sp].[moe](G)[sp].[moe](G)[sp].[moe](C)}$$$$V2.0	84% and 68%	–
RNA1{[moe](C)[sp].[moe](G)[sp].[moe](C)[sp].d(A)[sp].d(G)[sp].d(T)[sp].d(A)[sp].d(T)[sp].d(G)[sp].d(G)[sp].d(A)[sp].d(T)[sp].d(C)[sp].[cEt](G)[sp].[cEt](G)[sp].[cEt](C)}$$$$V2.0	85% and 84%	target mRNA inhibition (HepG2, 0.0092593 µM): 0%; target mRNA inhibition (HepG2, 0.0277778 µM): 50%; target mRNA inhibition (HepG2, 0.0833333 µM): 74%; target mRNA inhibition (HepG2, 0.25 µM): 81%
RNA1{[moe](C)[sp].[moe](G)[sp].[moe](G)[sp].[moe](G)[sp].[moe](C)[sp].d(A)[sp].d(A)[sp].d(C)[sp].d(A)[sp].d(T)[sp].d(A)[sp].d(C)[sp].d(C)[sp].d(T)[sp].[moe](T)[sp].[moe](G)}$$$$V2.0	54% and 53%	–
RNA1{[moe](C)[sp].[moe](G)[sp].[moe](T)[sp].[moe](G)[sp].[moe](C)[sp].d(A)[sp].d(G)[sp].d(A)[sp].d(G)[sp].d(G)[sp].d(T)[sp].d(G)[sp].d(A)[sp].d(A)[sp].[moe](G)[sp].[moe](C)}$$$$V2.0	59% and 51%	–
RNA1{[moe](C)[sp].[moe](G)[sp].d(C)[sp].d(A)[sp].d(G)[sp].d(T)[sp].d(A)[sp].d(T)[sp].d(G)[sp].d(G)[sp].d(A)[sp].[moe](T)[sp].[moe](C)[sp].[moe](G)[sp].[moe](G)[sp].[moe](C)[sp].[moe](A)}$$$$V2.0	82% and 80%	–
RNA1{[moe](C)[sp].[moe](G)[sp].d(T)[sp].d(G)[sp].d(C)[sp].d(A)[sp].d(G)[sp].d(A)[sp].d(G)[sp].d(G)[sp].d(T)[sp].[moe](G)[sp].[moe](A)[sp].[moe](A)[sp].[moe](G)[sp].[moe](C)}$$$$V2.0	51% and 60%	–
RNA1{[moe](C)[sp].[moe](T)[sp].[moe](A)[sp].[moe](G)[sp].[moe](T)[sp].d(A)[sp].d(A)[sp].d(A)[sp].d(C)[sp].d(T)[sp].d(G)[sp].d(A)[sp].d(G)[sp].d(C)[sp].[moe](C)[sp].[moe](A)}$$$$V2.0	71% and 63%	–
RNA1{[moe](C)[sp].[moe](T)[sp].[moe](G)[sp].[moe](G)[sp].d(A)[sp].d(G)[sp].d(C)[sp].d(C)[sp].d(A)[sp].d(C)[sp].d(C)[sp].d(A)[sp].d(G)[sp].[moe](C)[sp].[moe](A)[sp].[moe](G)}$$$$V2.0	57% and 60%	–
RNA1{[moe](C)[sp].[moe](T)[sp].[moe](G)[sp].d(G)[sp].d(A)[sp].d(G)[sp].d(C)[sp].d(C)[sp].d(A)[sp].d(C)[sp].d(C)[sp].d(A)[sp].[moe](G)[sp].[moe](C)[sp].[moe](A)[sp].[moe](G)}$$$$V2.0	42% and 38%	–
RNA1{[moe](C)[sp].[moe](T)[sp].[moe](G)[sp].d(G)[sp].d(A)[sp].d(G)[sp].d(C)[sp].d(C)[sp].d(A)[sp].d(C)[sp].d(C)[sp].d(A)[sp].d(G)[sp].[cEt](C)[sp].[cEt](A)[sp].[cEt](G)}$$$$V2.0	60%	–
RNA1{[moe](C)[sp].[moe](T)[sp].d(G)[sp].d(G)[sp].d(A)[sp].d(G)[sp].d(C)[sp].d(C)[sp].d(A)[sp].d(C)[sp].d(C)[sp].[moe](A)[sp].[moe](G)[sp].[moe](C)[sp].[moe](A)[sp].[moe](G)[sp].[moe](G)}$$$$V2.0	66% and 64%	–
RNA1{[moe](G)[sp].[cEt](A)[sp].[cEt](A)[sp].d(G)[sp].d(A)[sp].d(T)[sp].d(G)[sp].d(A)[sp].d(G)[sp].d(G)[sp].d(C)[sp].d(A)[sp].d(T)[sp].[cEt](A)[sp].[cEt](G)[sp].[moe](C)}$$$$V2.0	69% and 66%	–
RNA1{[moe](G)[sp].[cEt](A)[sp].[cEt](A)[sp].d(G)[sp].d(T)[sp].d(C)[sp].d(C)[sp].d(A)[sp].d(C)[sp].d(C)[sp].d(A)[sp].d(C)[sp].d(G)[sp].[cEt](A)[sp].[cEt](G)[sp].[moe](T)}$$$$V2.0	59% and 53%	–

Substance	target mRNA inhibition (HepG2, 0.07 µM)	other results
RNA1{[moe](G)[sp].[cEt](A)[sp].[cEt](G)[sp].d(A)[sp].d(A)[sp].d(G)[sp].d(T)[sp].d(C)[sp].d(C)[sp].d(A)[sp].d(C)[sp].d(C)[sp].d(A)[sp].[cEt](C)[sp].[cEt](G)[sp].[moe](A)}$$$$V2.0	62% and 54%	–
RNA1{[moe](G)[sp].[cEt](A)[sp].d(A)[sp].d(C)[sp].d(A)[sp].d(A)[sp].d(A)[sp].d(T)[sp].d(G)[sp].d(G)[sp].d(C)[sp].d(A)[sp].[cEt](C)[sp].[moe](T)[sp].[cEt](A)[sp].[moe](G)}$$$$V2.0	75% and 79%	–
RNA1{[moe](G)[sp].[cEt](A)[sp].d(A)[sp].d(C)[sp].d(T)[sp].d(G)[sp].d(G)[sp].d(A)[sp].d(G)[sp].d(C)[sp].d(C)[sp].d(A)[sp].[cEt](C)[sp].[moe](C)[sp].[cEt](A)[sp].[moe](G)}$$$$V2.0	68% and 56%	–
RNA1{[moe](G)[sp].[cEt](A)[sp].d(A)[sp].d(G)[sp].d(C)[sp].d(G)[sp].d(A)[sp].d(A)[sp].d(G)[sp].d(T)[sp].d(G)[sp].d(C)[sp].[cEt](A)[sp].[moe](C)[sp].[cEt](A)[sp].[moe](C)}$$$$V2.0	74% and 76%	–
RNA1{[moe](G)[sp].[cEt](A)[sp].d(G)[sp].d(A)[sp].d(A)[sp].d(G)[sp].d(T)[sp].d(C)[sp].d(C)[sp].d(A)[sp].d(C)[sp].d(C)[sp].[cEt](A)[sp].[moe](C)[sp].[cEt](G)[sp].[moe](A)}$$$$V2.0	34% and 43%	–
RNA1{[moe](G)[sp].[cEt](C)[sp].[cEt](A)[sp].d(C)[sp].d(A)[sp].d(G)[sp].d(C)[sp].d(T)[sp].d(T)[sp].d(G)[sp].d(G)[sp].d(A)[sp].d(G)[sp].[cEt](G)[sp].[cEt](C)[sp].[moe](T)}$$$$V2.0	27% and 12%	–
RNA1{[moe](G)[sp].[cEt](C)[sp].[cEt](A)[sp].d(T)[sp].d(A)[sp].d(G)[sp].d(C)[sp].d(A)[sp].d(G)[sp].d(C)[sp].d(A)[sp].d(G)[sp].d(G)[sp].[cEt](A)[sp].[cEt](T)[sp].[moe](G)}$$$$V2.0	67% and 71%	–
RNA1{[moe](G)[sp].[cEt](C)[sp].d(A)[sp].d(G)[sp].d(A)[sp].d(G)[sp].d(G)[sp].d(T)[sp].d(G)[sp].d(A)[sp].d(A)[sp].d(G)[sp].[cEt](C)[sp].[moe](G)[sp].[cEt](A)[sp].[moe](A)}$$$$V2.0	80% and 85%	target mRNA inhibition (HepG2, 0.0092593 µM): 21%; target mRNA inhibition (HepG2, 0.0277778 µM): 48%; target mRNA inhibition (HepG2, 0.0833333 µM): 74%; target mRNA inhibition (HepG2, 0.25 µM): 88%
RNA1{[moe](G)[sp].[cEt](G)[sp].[cEt](T)[sp].d(G)[sp].d(A)[sp].d(A)[sp].d(G)[sp].d(C)[sp].d(G)[sp].d(A)[sp].d(A)[sp].d(G)[sp].d(T)[sp].[cEt](G)[sp].[cEt](C)[sp].[moe](A)}$$$$V2.0	79% and 75%	–
RNA1{[moe](G)[sp].[cEt](G)[sp].d(A)[sp].d(G)[sp].d(T)[sp].d(T)[sp].d(C)[sp].d(C)[sp].d(G)[sp].d(C)[sp].d(A)[sp].d(G)[sp].[cEt](T)[sp].[moe](A)[sp].[cEt](T)[sp].[moe](G)}$$$$V2.0	78% and 87%	target mRNA inhibition (HepG2, 0.0092593 µM): 12%; target mRNA inhibition (HepG2, 0.0277778 µM): 49%; target mRNA inhibition (HepG2, 0.0833333 µM): 79%; target mRNA inhibition (HepG2, 0.25 µM): 89%
RNA1{[moe](G)[sp].[cEt](G)[sp].d(C)[sp].d(A)[sp].d(T)[sp].d(A)[sp].d(G)[sp].d(C)[sp].d(A)[sp].d(G)[sp].d(C)[sp].d(A)[sp].[cEt](G)[sp].[moe](G)[sp].[cEt](A)[sp].[moe](T)}$$$$V2.0	74% and 75%	–
RNA1{[moe](G)[sp].[moe](A)[sp].[moe](A)[sp].[moe](C)[sp].[moe](C)[sp].d(A)[sp].d(C)[sp].d(T)[sp].d(G)[sp].d(A)[sp].d(A)[sp].d(C)[sp].d(A)[sp].d(A)[sp].[moe](A)[sp].[moe](T)[sp].[moe](G)}$$$$V2.0	48% and 27%	–
RNA1{[moe](G)[sp].[moe](A)[sp].[moe](A)[sp].[moe](G)[sp].[moe](C)[sp].d(G)[sp].d(A)[sp].d(A)[sp].d(G)[sp].d(T)[sp].d(G)[sp].d(C)[sp].d(A)[sp].d(C)[sp].[moe](A)[sp].[moe](C)[sp].[moe](G)}$$$$V2.0	80% and 58%	–
RNA1{[moe](G)[sp].[moe](A)[sp].[moe](A)[sp].[moe](G)[sp].d(C)[sp].d(G)[sp].d(A)[sp].d(A)[sp].d(G)[sp].d(T)[sp].d(G)[sp].d(C)[sp].d(A)[sp].[moe](C)[sp].[moe](A)[sp].[moe](C)[sp].[moe](G)}$$$$V2.0	65% and 57%	–
RNA1{[moe](G)[sp].[moe](A)[sp].[moe](A)[sp].d(C)[sp].d(T)[sp].d(G)[sp].d(G)[sp].d(A)[sp].d(G)[sp].d(C)[sp].d(C)[sp].d(A)[sp].[moe](C)[sp].[moe](C)[sp].[moe](A)[sp].[moe](G)[sp].[moe](C)}$$$$V2.0	65% and 51%	–
